From BindingDB's records for doi:10.1016/s0960-894x(03)00588-2 (University of California Irvine, 2003)

Experiment: Inhibitory concentration against protein phosphatase 1 (PP1) using phosphorylase-a assay

Structure (SMILES)	IC50
CO[C@@H](Cc1ccccc1)[C@@H](C)/C=C(C)/C=C/[C@H](NC(C)=O)[C@H](C)C(=O)N[C@@H](C)C(=O)O [(S)-2-((4E,6E)-(2S,3S,8S,9S)-3-Acetylamino-9-methoxy-2,6,8-trimethyl-10-phenyl-deca-4,6-dienoylamino)-propionic acid]	170 µM
CO[C@@H](Cc1ccccc1)[C@@H](C)/C=C(C)/C=C/[C@H](NC(C)=O)[C@H](C)C(=O)N[C@H](C)C(=O)O [(R)-2-((4E,6E)-(2S,3S,8S,9S)-3-Acetylamino-9-methoxy-2,6,8-trimethyl-10-phenyl-deca-4,6-dienoylamino)-propionic acid]	1 µM
CO[C@@H](Cc1ccccc1)[C@@H](C)/C=C(C)/C=C/[C@H](NC(C)=O)[C@H](C)C(=O)NCC(=O)O [((4E,6E)-(2S,3S,8S,9S)-3-Acetylamino-9-methoxy-2,6,8-trimethyl-10-phenyl-deca-4,6-dienoylamino)-acetic acid]	5.6 µM

Experiment: Inhibitory concentration against protein phosphatase 1 (PP1) using pNPP assay

Structure (SMILES)	IC50
CO[C@@H](Cc1ccccc1)[C@@H](C)/C=C(C)/C=C/[C@H](NC(C)=O)[C@H](C)C(=O)N1C[C@@H](C(=O)O)C[C@@H]1C(=O)O [(2R,4S)-1-((4E,6E)-(2S,3S,8S,9S)-3-Acetylamino-9-methoxy-2,6,8-trimethyl-10-phenyl-deca-4,6-dienoyl)-pyrrolidine-2,4-dicarboxylic acid]	> 100 µM
CO[C@@H](Cc1ccccc1)[C@@H](C)/C=C(C)/C=C/[C@H](NC(C)=O)[C@H](C)C(=O)N1[C@@H](C(=O)O)CC[C@H]1C(=O)O [(2R,5S)-1-((4E,6E)-(2S,3S,8S,9S)-3-Acetylamino-9-methoxy-2,6,8-trimethyl-10-phenyl-deca-4,6-dienoyl)-pyrrolidine-2,5-dicarboxylic acid]	> 50 µM
COC(=O)[C@@H]1CCCN1C(=O)[C@@H](C)[C@H](/C=C/C(C)=C/[C@H](C)[C@H](Cc1ccccc1)OC)NC(C)=O [(S)-1-((4E,6E)-(2S,3S,8S,9S)-3-Acetylamino-9-methoxy-2,6,8-trimethyl-10-phenyl-deca-4,6-dienoyl)-pyrrolidine-2-carboxylic acid methyl ester]	> 100 µM
CO[C@@H](Cc1ccccc1)[C@@H](C)/C=C(C)/C=C/[C@H](NC(C)=O)[C@H](C)C(=O)N1C[C@H](C(=O)O)C[C@@H]1C(=O)O [(2R,4R)-1-((4E,6E)-(2S,3S,8S,9S)-3-Acetylamino-9-methoxy-2,6,8-trimethyl-10-phenyl-deca-4,6-dienoyl)-pyrrolidine-2,4-dicarboxylic acid]	> 100 µM
CC(=O)N[C@@H](/C=C/C(C)=C/CCCc1ccccc1)[C@H](C)C(=O)N[C@H](C)C(=O)O [(R)-2-((4E,6E)-(2S,3S)-3-Acetylamino-2,6-dimethyl-10-phenyl-deca-4,6-dienoylamino)-propionic acid]	> 100 µM
CO[C@@H](Cc1ccccc1)[C@@H](C)/C=C(C)/C=C/[C@H](NC(C)=O)[C@H](C)C(=O)N1C[C@H](C(=O)O)C[C@H]1C(=O)O [(2S,4R)-1-((4E,6E)-(2S,3S,8S,9S)-3-Acetylamino-9-methoxy-2,6,8-trimethyl-10-phenyl-deca-4,6-dienoyl)-pyrrolidine-2,4-dicarboxylic acid]	> 100 µM
CO[C@@H](Cc1ccccc1)[C@@H](C)/C=C(C)/C=C/[C@H](NC(C)=O)[C@H](C)C(=O)N1[C@H](C(=O)O)CC[C@H]1C(=O)O [(2S,5S)-1-((4E,6E)-(2S,3S,8S,9S)-3-Acetylamino-9-methoxy-2,6,8-trimethyl-10-phenyl-deca-4,6-dienoyl)-pyrrolidine-2,5-dicarboxylic acid]	> 50 µM
CO[C@@H](Cc1ccccc1)[C@@H](C)/C=C(C)/C=C/[C@H](NC(C)=O)[C@H](C)C(=O)N[C@H](C)C(=O)O [(R)-2-((4E,6E)-(2S,3S,8S,9S)-3-Acetylamino-9-methoxy-2,6,8-trimethyl-10-phenyl-deca-4,6-dienoylamino)-propionic acid]	25 µM
CC(=O)N[C@@H](/C=C/C(C)=C/c1ccccc1Cc1ccccc1)[C@H](C)C(=O)N[C@H](C)C(=O)O [(R)-2-[(4E,6E)-(2S,3S)-3-Acetylamino-7-(2-benzyl-phenyl)-2,6-dimethyl-hepta-4,6-dienoylamino]-propionic acid]	> 100 µM
CO[C@@H](Cc1ccccc1)[C@@H](C)/C=C(C)/C=C/[C@H](NC(C)=O)[C@H](C)C(=O)N1C[C@H](O[Si](C(C)C)(C(C)C)C(C)C)C[C@@H]1C(=O)O [(2R,4R)-1-((4E,6E)-(2S,3S,8S,9S)-3-Acetylamino-9-methoxy-2,6,8-trimethyl-10-phenyl-deca-4,6-dienoyl)-4-triisopropylsilanyloxy-pyrrolidine-2-carboxylic acid]	> 100 µM
CO[C@@H](Cc1ccccc1)[C@@H](C)/C=C(C)/C=C/[C@H](NC(C)=O)[C@H](C)C(=O)N(CC(=O)O)CC(=O)O [[((4E,6E)-(2S,3S,8S,9S)-3-Acetylamino-9-methoxy-2,6,8-trimethyl-10-phenyl-deca-4,6-dienoyl)-carboxymethyl-amino]-acetic acid]	> 100 µM
COC(=O)[C@H]1CCCN1C(=O)[C@@H](C)[C@H](/C=C/C(C)=C/[C@H](C)[C@H](Cc1ccccc1)OC)NC(C)=O [(R)-1-((4E,6E)-(2S,3S,8S,9S)-3-Acetylamino-9-methoxy-2,6,8-trimethyl-10-phenyl-deca-4,6-dienoyl)-pyrrolidine-2-carboxylic acid methyl ester]	> 100 µM
CO[C@@H](Cc1ccccc1)[C@@H](C)/C=C(C)/C=C/[C@H](NC(C)=O)[C@H](C)C(=O)N1CCC[C@@H]1C(=O)O [(R)-1-((4E,6E)-(2S,3S,8S,9S)-3-Acetylamino-9-methoxy-2,6,8-trimethyl-10-phenyl-deca-4,6-dienoyl)-pyrrolidine-2-carboxylic acid]	> 55 µM
CO[C@@H](Cc1ccccc1)[C@@H](C)/C=C(C)/C=C/[C@H](NC(C)=O)[C@H](C)C(=O)N1CCCC1 [N-[(2E,4E)-(1S,6S,7S)-7-Methoxy-4,6-dimethyl-1-((S)-1-methyl-2-oxo-2-pyrrolidin-1-yl-ethyl)-8-phenyl-octa-2,4-dienyl]-acetamide]	> 100 µM
CO[C@@H](Cc1ccccc1)[C@@H](C)/C=C(C)/C=C/[C@H](NC(C)=O)[C@H](C)C(=O)N1CCC[C@H]1C(=O)O [(S)-1-((4E,6E)-(2S,3S,8S,9S)-3-Acetylamino-9-methoxy-2,6,8-trimethyl-10-phenyl-deca-4,6-dienoyl)-pyrrolidine-2-carboxylic acid]	> 100 µM
CC(=O)N[C@@H](/C=C/C(C)=C/c1ccc(-c2ccccc2)cc1)[C@H](C)C(=O)N[C@H](C)C(=O)O [(R)-2-((4E,6E)-(2S,3S)-3-Acetylamino-7-biphenyl-4-yl-2,6-dimethyl-hepta-4,6-dienoylamino)-propionic acid]	> 100 µM
